This passage reports IC50 results from patent US6248739A, “Quinolinecarboxamides as antiviral agents” (Pharmacia & Upjohn Company, priority 1999, dated 2001).

Read-outs that look alike come from different tables or passages of the source. Bounds are passed on as bounds.

One experiment has as its target T1, HCMV polymerase (Human cytomegalovirus, UniProt P08546).
T1 construct: made in house; host or cells: recombinant baculovirus-infected SF-9 insect cells
Description: biochemical. An outline of the steps: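 Scintillation proximity assay with baculovirus/SF-9-expressed HCMV polymerase, 90 nM ³H-dTTP and 6 nM biotinylated poly(dA)-oligo(dT) in HEPES pH 7.5/KCl/MgCl2/BSA, ±2 mM CHAPS, 25 or 37 °C, 30 min for HCMV. Modified version: compounds diluted in 100% DMSO, 4.5 mM DTT added. IC50 from linear regression.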

Another experiment addresses VZV polymerase (Varicella-zoster virus, UniProt P09252). Description: VZV polymerase assay (Table 1). The format is biochemical.
A further experiment concerns the target HSV polymerase (Human herpesvirus 1, UniProt P04293). Description: HSV polymerase assay (Table 1). The format is biochemical.
Where [1] appears, read: HCMV polymerase, SPA, modified assay: compounds in 100% DMSO, 4.5 mM DTT.

T1 sequence (P08546 whole entry): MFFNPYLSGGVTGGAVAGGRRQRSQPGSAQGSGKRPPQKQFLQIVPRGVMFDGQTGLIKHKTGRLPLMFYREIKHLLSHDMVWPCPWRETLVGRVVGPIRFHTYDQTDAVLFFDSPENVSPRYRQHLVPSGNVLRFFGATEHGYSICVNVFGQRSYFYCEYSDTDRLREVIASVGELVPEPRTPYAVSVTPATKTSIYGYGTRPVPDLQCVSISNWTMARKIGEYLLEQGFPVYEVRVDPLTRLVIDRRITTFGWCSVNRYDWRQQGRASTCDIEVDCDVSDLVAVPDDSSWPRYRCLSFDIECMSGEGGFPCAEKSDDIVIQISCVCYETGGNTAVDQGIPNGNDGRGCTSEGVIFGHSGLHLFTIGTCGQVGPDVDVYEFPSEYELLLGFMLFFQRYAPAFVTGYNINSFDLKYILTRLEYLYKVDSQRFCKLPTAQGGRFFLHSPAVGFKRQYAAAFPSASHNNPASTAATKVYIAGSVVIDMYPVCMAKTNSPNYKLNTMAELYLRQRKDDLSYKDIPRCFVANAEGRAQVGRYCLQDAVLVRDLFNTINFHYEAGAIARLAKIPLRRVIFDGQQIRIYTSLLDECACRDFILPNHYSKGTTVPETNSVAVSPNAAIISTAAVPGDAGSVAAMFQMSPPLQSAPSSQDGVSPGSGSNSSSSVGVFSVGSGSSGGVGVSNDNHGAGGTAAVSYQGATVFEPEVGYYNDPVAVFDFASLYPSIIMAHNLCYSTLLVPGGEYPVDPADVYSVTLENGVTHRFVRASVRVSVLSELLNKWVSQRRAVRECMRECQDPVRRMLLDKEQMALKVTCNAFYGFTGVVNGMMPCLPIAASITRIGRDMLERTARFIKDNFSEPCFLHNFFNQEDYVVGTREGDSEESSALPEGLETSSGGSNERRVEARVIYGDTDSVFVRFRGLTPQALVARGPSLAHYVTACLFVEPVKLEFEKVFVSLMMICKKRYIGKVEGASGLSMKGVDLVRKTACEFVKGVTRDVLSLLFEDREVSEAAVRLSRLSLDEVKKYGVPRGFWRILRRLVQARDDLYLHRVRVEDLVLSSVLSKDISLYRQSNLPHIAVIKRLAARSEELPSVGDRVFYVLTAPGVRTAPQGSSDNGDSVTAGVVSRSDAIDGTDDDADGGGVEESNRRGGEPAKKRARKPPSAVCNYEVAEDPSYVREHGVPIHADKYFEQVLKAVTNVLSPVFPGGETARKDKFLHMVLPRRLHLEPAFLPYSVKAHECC
Chain of HSV polymerase (P04293 whole entry): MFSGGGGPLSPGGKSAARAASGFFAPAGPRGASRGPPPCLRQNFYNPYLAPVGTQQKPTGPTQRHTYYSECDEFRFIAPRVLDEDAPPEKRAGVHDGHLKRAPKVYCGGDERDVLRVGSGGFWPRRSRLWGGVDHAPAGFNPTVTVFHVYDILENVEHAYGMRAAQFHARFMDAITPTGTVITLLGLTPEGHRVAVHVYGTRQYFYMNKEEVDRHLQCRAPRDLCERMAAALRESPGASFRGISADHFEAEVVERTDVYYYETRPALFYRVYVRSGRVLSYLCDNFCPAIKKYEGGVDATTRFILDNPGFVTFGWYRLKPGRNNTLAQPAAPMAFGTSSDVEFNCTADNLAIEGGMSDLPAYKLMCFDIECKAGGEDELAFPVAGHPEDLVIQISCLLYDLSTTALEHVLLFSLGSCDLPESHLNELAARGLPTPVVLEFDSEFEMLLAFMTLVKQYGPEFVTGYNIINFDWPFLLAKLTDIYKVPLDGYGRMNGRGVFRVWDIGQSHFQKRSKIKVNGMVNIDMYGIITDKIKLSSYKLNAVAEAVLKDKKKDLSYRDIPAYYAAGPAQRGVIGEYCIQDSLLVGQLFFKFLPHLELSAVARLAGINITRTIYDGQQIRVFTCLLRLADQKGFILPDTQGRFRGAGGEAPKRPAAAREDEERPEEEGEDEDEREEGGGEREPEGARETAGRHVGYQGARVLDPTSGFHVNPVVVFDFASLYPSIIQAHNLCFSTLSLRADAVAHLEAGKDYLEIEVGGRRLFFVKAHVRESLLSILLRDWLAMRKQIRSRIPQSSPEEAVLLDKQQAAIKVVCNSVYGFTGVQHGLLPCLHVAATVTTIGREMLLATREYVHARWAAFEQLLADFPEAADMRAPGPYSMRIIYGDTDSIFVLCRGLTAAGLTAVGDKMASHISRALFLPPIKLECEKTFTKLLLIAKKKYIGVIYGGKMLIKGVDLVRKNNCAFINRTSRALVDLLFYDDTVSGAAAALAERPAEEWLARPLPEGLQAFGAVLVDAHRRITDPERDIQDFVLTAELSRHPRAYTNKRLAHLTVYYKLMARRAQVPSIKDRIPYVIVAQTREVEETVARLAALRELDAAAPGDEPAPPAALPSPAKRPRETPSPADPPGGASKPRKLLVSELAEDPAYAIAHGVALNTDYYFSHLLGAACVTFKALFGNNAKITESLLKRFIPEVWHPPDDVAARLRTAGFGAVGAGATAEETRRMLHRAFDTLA
Chain of VZV polymerase (P09252 whole entry): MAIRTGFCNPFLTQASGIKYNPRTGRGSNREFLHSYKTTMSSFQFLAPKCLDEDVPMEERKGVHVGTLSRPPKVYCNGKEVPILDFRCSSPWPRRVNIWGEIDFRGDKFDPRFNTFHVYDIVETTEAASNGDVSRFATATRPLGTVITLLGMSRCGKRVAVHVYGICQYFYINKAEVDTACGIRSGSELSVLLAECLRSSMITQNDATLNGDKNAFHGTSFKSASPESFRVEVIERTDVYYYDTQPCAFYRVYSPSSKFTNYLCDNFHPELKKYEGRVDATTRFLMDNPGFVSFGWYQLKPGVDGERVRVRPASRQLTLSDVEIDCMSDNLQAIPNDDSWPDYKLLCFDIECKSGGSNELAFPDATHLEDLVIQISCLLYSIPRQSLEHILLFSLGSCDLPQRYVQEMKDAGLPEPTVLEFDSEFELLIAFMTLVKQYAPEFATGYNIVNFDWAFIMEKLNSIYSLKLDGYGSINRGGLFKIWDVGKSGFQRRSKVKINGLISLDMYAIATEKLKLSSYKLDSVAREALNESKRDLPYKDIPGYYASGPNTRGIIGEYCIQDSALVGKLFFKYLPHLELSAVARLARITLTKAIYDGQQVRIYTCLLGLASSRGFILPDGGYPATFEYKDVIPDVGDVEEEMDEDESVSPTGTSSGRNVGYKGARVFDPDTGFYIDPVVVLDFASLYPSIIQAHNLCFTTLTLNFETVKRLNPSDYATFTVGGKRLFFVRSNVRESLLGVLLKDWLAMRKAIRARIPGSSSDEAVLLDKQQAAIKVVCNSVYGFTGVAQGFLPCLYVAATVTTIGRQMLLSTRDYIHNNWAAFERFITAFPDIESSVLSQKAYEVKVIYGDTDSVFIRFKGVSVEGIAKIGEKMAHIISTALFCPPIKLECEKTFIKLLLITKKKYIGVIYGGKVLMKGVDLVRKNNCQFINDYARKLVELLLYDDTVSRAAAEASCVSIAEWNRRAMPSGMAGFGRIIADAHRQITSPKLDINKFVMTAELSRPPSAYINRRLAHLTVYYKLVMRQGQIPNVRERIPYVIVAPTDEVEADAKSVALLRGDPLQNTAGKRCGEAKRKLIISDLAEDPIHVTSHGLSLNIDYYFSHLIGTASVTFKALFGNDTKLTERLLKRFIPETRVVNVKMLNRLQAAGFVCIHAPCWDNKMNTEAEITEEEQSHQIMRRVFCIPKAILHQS

Turning to `CCN(CC)CCn1cc(C(=O)NCc2ccc(Cl)cc2)c(=O)c2cc(C#CCO)ccc21` [Example 12, N-(4-Chlorobenzyl)-1-[2-(diethylamino)ethyl]-6-(3-hydroxy-1-propynyl)-4-oxo-1,4-dihydro-3-quinolinecarboxamide], the results for the IC50 at HCMV polymerase (setting [1]), at VZV polymerase and against HSV polymerase were 2000 nM, 1900 nM and 3000 nM, respectively.
In the case of `O=C(NCc1ccc(Cl)cc1)c1cn(CCN2CCOCC2)c2ccc(C=CCO)cc2c1=O` [Example 7, N-(4-Chlorobenzyl)-6-(3-hydroxy-1-propenyl)-1-[2-(4-morpholinyl)ethyl]-4-oxo-1,4-dihydro 3-quinolinecarboxamide], the IC50 (usually the midpoint of a concentration-inhibition curve) against HCMV polymerase came to 1000 nM; against VZV polymerase it was 770 nM; at HSV polymerase, 1100 nM.
`Cn1cc(C(=O)NCc2ccc(Cl)cc2)c(=O)c2cc(C#CCO)ccc21` [Example 31, N-(4-Chlorobenzyl)-6-(3-hydroxy-1-propynyl)-1-methyl-4-oxo-1,4-dihydro-3-quinolinecarboxamide]: the IC50 came to 1100 nM against HCMV polymerase (setting [1]), 1000 nM against VZV polymerase and 1300 nM against HSV polymerase.
The matching figures for `Cn1cc(C(=O)NCc2ccc(Cl)cc2)c(=O)c2cc(CCCO)cc(OCCO)c21` [Example 4]: 600 nM, 1200 nM and 1000 nM.
The matching figures for `O=C(NCc1ccc(Cl)cc1)c1cn(CCOCCO)c2ccc(C#CCO)cc2c1=O` [Example 55, N-(4-Chlorobenzyl)-1-[2-(2-hydroxyethoxy)ethyl]-6-(3-hydroxy-1-propynyl)-4-oxo-1,4-dihydro-3-quinolinecarboxamide]: 2300 nM, 1400 nM and 2400 nM.
With `COc1cc(C(O)CN(C)Cc2ccc3c(c2)c(=O)c(C(=O)NCc2ccc(Cl)cc2)cn3C)ccc1O` (stereo not drawn) [Example 77, N-(4-Chlorobenzyl)-6-([(2-hydroxy-2-[4-hydroxy-3-methoxyphenyl]ethyl)[methyl]amino]methyl)-1-methyl-4-oxo-1,4-dihydro-3-quinolinecarboxamide], the 50% inhibitory concentration (IC50) at HCMV polymerase (setting [1]) was 1300 nM; on VZV polymerase it was 2100 nM; against HSV polymerase, 4100 nM.
The matching figures for `O=C(NCc1ccc(Cl)cc1)c1cn(C2CC2)c2ccc(CCCO)cc2c1=O` [Example 26, N-(4-Chlorobenzyl)-1-cyclopropyl-6-(3-hydroxypropyl)-4-oxo-1,4-dihydro-3-quinolinecarboxamide]: 530 nM, 490 nM and 780 nM.
Take `O=C(NCc1ccc(Cl)cc1)c1cn(CSc2ccccc2)c2ccc(CN3CCOCC3)cc2c1=O` [Example 76, N-(4-Chlorobenzyl)-6-(morpholinylmethyl)-4-oxo-1-[(phenylsulfanyl)methyl]-1,4-dihydro-3-quinolinecarboxamide]: the IC50 against HCMV polymerase (setting [1]) was 180 nM; on VZV polymerase it was less than 310 nM; at HSV polymerase, less than 310 nM.
On to `O=C(NCc1ccc(Cl)cc1)c1cn(CC#CCO)c2ccc(CN3CCOCC3)cc2c1=O` [Example 62, N-(4-Chlorobenzyl)-1-(4-hydroxy-2-butynyl)-6-(4-morpholinylmethyl)-4-oxo-1,4-dihydro-3-quinolinecarboxamide], for which the IC50 on HCMV polymerase (setting [1]) was determined as 1300 nM; against VZV polymerase it was 610 nM; on HSV polymerase, 1100 nM.
For the molecule `O=C(NCc1ccc(Cl)cc1)c1cn(CCN2CCCCC2)c2ccc(C#CCO)cc2c1=O` [Example 14, N-(4-Chlorobenzyl)-6-(3-hydroxy-1-propynyl)-1-[2-(1-piperidinyl)ethyl]-4-oxo-1,4-dihydro-3-quinolinecarboxamide], the IC50 worked out at 1300 nM against HCMV polymerase, 1100 nM against VZV polymerase and 1200 nM on HSV polymerase.
For `CC(C)N(CCn1cc(C(=O)NCc2ccc(Cl)cc2)c(=O)c2cc(C#CCO)ccc21)C(C)C` [Example 17, N-(4-Chlorobenzyl)-1-[2-(diisopropylamino)ethyl]-6-(3-hydroxy-1-propynyl)-4-oxo-1,4-dihydro-3-quinolinecarboxamide], the IC50 against HCMV polymerase (setting [1]) came out at 800 nM; at VZV polymerase it was 1100 nM; against HSV polymerase, 2000 nM.
The matching figures for `CN(Cc1ccc2c(c1)c(=O)c(C(=O)NCc1ccc(Cl)cc1)cn2C)CC(O)c1ccc(O)cc1` (stereo not drawn) [Example 74, N-(4-Chlorobenzyl)-6-([(2-hydroxy-2-[4-hydroxyphenyl]-ethyl) [methyl]amino]methyl)-1-methyl-4-oxo-1,4-dihydro-3-quinolinecarboxamide]: 890 nM, 1600 nM and 2800 nM.
As for `Cn1cc(C(=O)NCc2ccc(Cl)cc2)c(=O)c2cc(CN3CC(O)C3)ccc21` [Example 75, N-(4-Chlorobenzyl)-6-[(3-hydroxy-1-azetidinyl)methyl]-1-methyl-4-oxo-1,4-dihydro-3-quinolinecarboxamide], the IC50 on HCMV polymerase (setting [1]) was found to be 3300 nM; against VZV polymerase it was 4000 nM; at HSV polymerase, 4400 nM.
